In article PMC5640650, “NatD promotes lung cancer progression by preventing histone H4 serine phosphorylation to activate Slug expression” (Nature Communications, 2017):

Columns and labels:
LLC cells = assay: Tail vein injection in C57BL/6 mice, LLC cells; format: in vivo, murine; settings: 30 days, n = 5, vs Scr
Procedure: All animal care and handling procedures were performed in accordance with the National Institutes of Health Guide for the Care and Use of Laboratory Animals, and were approved by the Institutional Review Board of Nanjing University (Nanjing, China). Female SCID mice and C57BL/6 mice (6–8 week old) were purchased from the Model Animal Research Center of Nanjing University (Nanjing, China), and were maintained under specific pathogen-free conditions at Nanjing University. The sample size was chosen with adequate power on the basis of the literature and our previous experience[46] and for each experiment it is indicated in the figure legend. […] Lung nodules and progression were monitored and quantified using the bioluminescence system (Caliper IVIS Lumina XR) or by counting under a dissecting microscope. […] Mice were killed at day 28 or day 30 to collect lungs, and lung nodules in serial sections were quantified microscopically. […] Lung nodules and progression were monitored and quantified using the bioluminescence system (Caliper IVIS Lumina XR). Mice were killed at day 14 or day 21 to collect lungs, and lung nodules in serial sections were quantified microscopically. […]
Representative blots from three independent experiments. […] (bottom) Cell migration and invasion expressed as a percentage of Scr control. […]

Slug promoter = Slug promoter luciferase reporter assay, H1299 cells; format: cell-based, human; settings: 1155-bp Slug promoter in pGL3-basic, beta-galactosidase normalized
Procedure: Response to the reviewers' comments:
Q1. In relation to Query 11 where Slug promoter analyses were requested to functionally test the consequences of epigenetic changes, the authors argue “it is less […]
promoter activity in cytoplasm where functional nucleosomes (composed of histone and DNA) are not formed”. I disagree with the authors’ response since it would invalidate all promoter assays performed in many different situations in which the action of “nuclear” transcription factors is analyzed with exogenous promoters that need to be translocated to the nucleus for functional activity. Thus, although I agree that the epigenetic changes might not be easily reproduced in the exogenous promoters, the authors should made the effort to perform this requested experimental […]
We agree with the reviewer that the experiment should be performed. Therefore, we cloned a 1155-bp Slug promoter fragment [Ref: Morita T et al., J Cell Biol. 2007, 179(5): 1027-1042] into the pGL3-basic luciferase vector (sequence confirmed by DNA sequencing). The activity of Slug promoter in the different situations (control […]
NatD) were analyzed; pSV-beta-Gal plasmid expressing beta-galactosidase was used as the normalization control according to Cold Spring Harbor Protocol [Smale ST.
Beta-galactosidase assay. Cold Spring Harb Protoc 2010: pdb prot5423]. As the […]

Substance: NatD-KD2: Human NatD shRNA KD2: 5′-GGTTGAATGTCTCCATTGA-3′, lentiviral (shRNA lentiviral)
- number of tumor nodules (LLC cells): significantly fewer tumor nodules
- Slug promoter luciferase activity (Slug promoter): no significant changes in luciferase activity
